Literature values as cited in patent US20220202720A1, “SUSTAINED RELEASE C[…] AND METHOD OF PREPARATION THEREOF” (PHARMATHEN S.A., priority 2019, published 2022).

Molecular target: recombinant μ-opioid receptor (Homo sapiens, UniProt P35372)
Sequence (P35372 whole entry, species assumed): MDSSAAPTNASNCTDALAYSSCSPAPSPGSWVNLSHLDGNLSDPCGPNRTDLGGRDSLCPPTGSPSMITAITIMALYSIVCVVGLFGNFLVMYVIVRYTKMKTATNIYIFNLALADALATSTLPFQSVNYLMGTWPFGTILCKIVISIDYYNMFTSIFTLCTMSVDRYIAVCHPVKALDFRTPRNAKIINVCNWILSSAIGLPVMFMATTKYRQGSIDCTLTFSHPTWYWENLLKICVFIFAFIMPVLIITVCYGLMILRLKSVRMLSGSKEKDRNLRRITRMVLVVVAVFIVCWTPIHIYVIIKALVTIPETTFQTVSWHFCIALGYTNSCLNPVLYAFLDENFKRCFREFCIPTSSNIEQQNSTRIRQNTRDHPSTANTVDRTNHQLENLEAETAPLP

CC[C@@H](c1cccc(O)c1)[C@@H](C)CN(C)C [Tapentadol]
reduced affinity to recombinant μ-opioid receptor compared to morphine: 18 times
